Measured values reported in patent publication US20260337177A1, “TEAD CORE INHIBITORS FOR CANCER THERAPEUTICS” (University of Florida Research Foundation, Incorporated, priority 2023, published 2026).

Legend:
TEADs = experiment: TEAD-specific 8×GTIIC-luciferase reporter assay; type: cell-based
Method: A series of compounds featuring a chloromethyl ketone moiety were synthesized (Schemes 1-4). The inhibitory rate of this series of compounds was tested using 8×GTIIC-luciferase reporter assay at 10 μM.
Next, the inhibition of TEAD transcription activity of compounds was tested varying the dosage using the 8×GTIIC-luciferase reporter assay. […] The aim was to determine whether its inhibition of TEAD transcription can lead to downregulation of the YAP-TEAD target genes. CTGF is one of the best characterized (bona fide) target gene of YAP and TAZ.
To further investigate the mechanism of the inhibitory effect of compounds in Huh7 cells, TEADs specific luciferase reporter assays were performed with compounds 22 and 12 at several concentrations. […] TEAD downstream gene expression patterns were evaluated in liver cancer cells Huh7, which has been evidenced with relative high expression of YAP and TEAD2.
HEK 293T cells were plated at 2×10^4 cells/well in a 96 well microplate and were transfected with 50 ng of 8×GTIIC-luciferase plasmid (Addgene #34615) and 0.5 ng of pRL-CMV (Promega #E226A) by using lipofectamine 3000 (Life Technologies #L3000). The 8×GTIIc-luciferase reporter is a Yap/Taz-activity reporter containing eight TEAD consensus binding sequences. After 6 h, transfected cells were treated with various concentrations of compounds or DMSO control. Luciferase signals were measured using the Dual Luciferase Reporter Assay System (Promega, E1960) according to the manufacturer's instructions. Experiments were performed in triplicate and repeated at least three times.

YAP-TEAD = experiment: Co-immunoprecipitation of endogenous YAP and TEAD in NCI-H226 cells; type: cell-based
Method: To assess if compound 22 inhibits the interaction between YAP/TAZ and TEAD proteins within the cell, compound 22 was administered to NF2-deficient NCI-H226 cells for 24 hours. Subsequently, the endogenous TEAD protein was isolated through immunoprecipitation using a pan-TEAD antibody and examined the immunocomplexes for the presence of YAP/TAZ proteins using anti-YAP/TAZ antibodies (as depicted in FIG. 18).
[…] protein lysate extracted using lysis buffer were incubated with 5 μL pan-TEAD antibody (CST #13295, 33 g/ml) at 4 ° C overnight with rotation, and then incubated with 15 μL Protein G magnetic beads (Fisher #88847) at R.T. for 1 hour with rotation. After binding, beads were washed three times with lysis buffer and one time with ddH2O. IP samples were eluted using 1× gel loading buffer supplied with 20 mM DTT and boiled at 96 ° C for 10 min. […] protein lysate were used for input, and 3% IP flow-thru were used for binding efficiency control. *0 indicated DMSO control. For the detection process, primary antibodies used were: YAP/TAZ rabbit monoclonal antibody (mAb) at a dilution of 1:2000, CST #8418S; Pan-TEAD rabbit mAb at 1:2000, CST #13295S; and 3-actin mouse mAb at 1:8000, Sigma #A5316. Secondary antibodies applied in 1× TBST were: Rabbit IgG-HRP at 1:10000 and Mouse IgG-HRP also at 1:10000.

HepG2 cells = experiment: Colony formation (clonogenic) assay, HepG2; type: cell-based; conditions: Homo sapiens, 48 h, read-out: Colony formation, rate of inhibition, HepG2
Method: The ability of compound 22 to inhibit the proliferation of liver cancer cell lines Huh7 and HepG2 was further assessed using a clonogenic assay.
Huh7 or HepG2 (500 cells/well) were plated into 6 well plates (500 cells per well) and treated with 0 or 5 μM compound 22. Colonies were grown in the absence of soft agar for 2 weeks in a humidified atmosphere of 5% C02 at 37 ° C Crystal violet blue solution (Sigma) was used to stain the colonies for one hour and fixed in methanol followed by counting under a microscope. Triplicate wells were used for each cell line and three independent experiments were performed.

HB tumors = experiment: Murine hepatoblastoma (HB) model, HDTV injection of S127A-YAP1 and ΔN90-β-catenin; type: in vivo, C57BL6 mice
Method: Using this model, the inhibitory effect of YAP inhibitor compound 22 on HB development was examined. In brief, following HDTV injection, the co-expression of constitutively active S127A-YAP1 and ΔN90 deletion-mutant β-catenin (ΔN90-β-catenin) via Sleeping Beauty-mediated somatic integration led to HB development in mouse livers. Plasmids carrying T3EF1α-YAPS127A (20 μg), pCMV-sleeping beauty transposase (SB, 0.8 μg), and pT3-EF1α-ΔN90-β-catenin (20 μg) were extracted using the Endotoxin-Free Maxiprep kit (Qiagen), diluted in 2 ml 0.9% sodium chloride solution, and injected via hydrodynamic tail vein injection (HDTV) into C57BL6 mice (6 week-old, body weight of 20 g). compound 22 or mock control (twice a week for three months, IP injection) were applied two weeks post the HDTV injection until two days before sacrifice. Low dose group received […] body weight and high dose group received […] body weight.
Tissues harvested from mice were fixed in 4% paraformaldehyde PBS solution for 24 hours, embedded in paraffin, and sectioned (6 μm). Standard staining protocols were performed for IHC using an ABC kit from Vector lab (Vector Laboratories, Inc., CA). The primary antibody was mouse anti-Ki67 antibody (catalogNCL-L-Ki67-MM1, 1:100 dilution) from Leica Biosystems (Deer Park, IL). Stained sections were detected using a microscope (Leica, Germany).
For drug assessment in the murine HB model, plasmids carrying T3EF1α-YAPS127A (20 μg), pCMV-sleeping beauty transposase (SB, 0.8 μg), and pT3-EF1α-ΔN90-β-catenin (20 μg) from Addgene (Watertown, MA) were used. The plasmids were extracted using the Endotoxin-Free Maxiprep kit (Qiagen, Redwood City, CA), diluted in 2 ml 0.9% sodium chloride solution, and injected via hydrodynamic tail vein injection (HDTV) into C57BL6 mice (n=15, 6 week old). Three weeks post the HDTV injection, compound 22 ([…] body weight) or mock control were applied twice a week for total 9 weeks via IP injection. Two days post last drug treatment, mice were euthanized and tumor tissues were subjected to molecular and histological characterizations.

O=C(CCl)c1c[nH]c2cc(Cl)c(OCc3cccc(C(F)(F)F)c3)cc12 [Compound 22, 2-chloro-1-(6-chloro-5-((3-(trifluoromethyl)benzyl)oxy)-1H-indol-3-yl)ethan-1-one]
inhibition at 10 µM (TEADs; 10 μM, 8×GTIIC-luciferase, read-out: Luciferase reporter assay inhibitory rate): 93.6%
IC50 (TEADs; dose response, read-out: TEADs transcription inhibition IC50, luciferase reporter assay): 2.1 µM
Co-IP of YAP with pan-TEAD antibody (YAP-TEAD; 1 μM, 24 hours): significantly diminished
Interaction between YAP and TEAD (YAP-TEAD; "2.5 M", 24-hour treatment): almost entirely inhibited
inhibition at 5 µM (HepG2 cells): 59.5%
HB tumors, occurrence and size (HB tumors; 25 mg/kg body weight, twice a week for 9 weeks, IP): notable reduction in both the occurrence and size of HB tumors
Number of proliferating cells (IHC) (HB tumors; 25 mg/kg, Cyclin D1 / Ki67 (FIG. 23B)): decreased number of proliferating cells
Ccnd1, CTGF, Cyr61, Afp, and Gpc3 mRNAs in livers (HB tumors; real time qRT-PCR, 25 mg/kg): lower levels
CTGF and Cyr61 proteins in livers (HB tumors; western blotting, 25 mg/kg): decreased CTGF and Cyr61
